This note sets out measurements from US11987583B2, “Fused triazolo-pyrimidine compounds having useful pharmaceutical application” (PIKSci Inc., priority 2017, dated 2024).

Like-named read-outs stand apart in the source and are kept apart here.

The test system of test [1] is Acute myelomonocytic leukemia cells ML-2. Description: Caspase3/7 activity (Caspase-Glo 3/7) in ML-2 cells. Format: cell-based. The conditions noted are these: 15 h, 24 h and 41 h after exposure. How it is done:
Acute myelomonocytic leukemia cells ML-2 were plated in 96 well plate at a density of 50,000 cells per a well in RPMI medium supplemented with 10% FBS. The cells were exposed to compounds and the early apoptosis marker, Caspase3/7 activity, was measured in the cells at 15 h, 24 h and 41 h after exposure to compounds. The caspase activity was determined using Caspase-Glo® 3/7 Assay (Promega) and according to the protocol provided by the manufacturer.

For test [2], the system named is IL-23 secretion by LPS-induced PBMCs. Briefly: IL-23 secretion by LPS-stimulated human PBMCs (ELISA). Conditions: 2 h pre-incubation, 100 ng/mL LPS 18 hours. The class given is cell-based. As for the experimental part: Human PBMCs were plated in 96 well plate at a density of 150,000 cells per a well in RPMI medium supplemented with 10% FBS. The cells were pre-incubated with compounds for 2 h. Following pre-incubation, the cells were stimulated with 100 ng/mL LPS for 18 hours. The secreted IL-23 was determined by ELISA (Human IL-23 Quantikine ELISA Kit, R&D cat #D2300B).
On the technique in general: An ELISA detects its analyte on a solid surface through an enzyme-linked reagent.

Test [3] deals with normal human peripheral blood mononuclear cells. Description: Cell viability (Presto Blue), normal human PBMCs. Format: cell-based. The conditions noted are these: for IC50: Homo sapiens, PBMC. How it is done: (§1) Three cancer cell lines, multiple myeloma KMS12E, Non-hodgkin's lymphoma SU-DHL4, T-cell lymphoma Hut-78, and normal human peripheral blood mononuclear cells derived from healthy individual were tested. The cells were plated in 384 well plates in RPMI medium supplemented with 10% fetal bovine serum. Cancer cells were plated at 1000 cells/well and normal cells at 10,000 cells per well in a total volume of 30 uL/well. Immediately after plating, the test compounds were added at […] concentrations: 10 uM-1 uM-0.01 uM-0.001 uM, in duplicate wells for each concentration. The cells were exposed to compounds for 70 hours at 37° C. in humidified incubator with 5% CO2. Cell viability was determined by Presto Blue reagent (Thermo Scientific/Invitrogen).

The next test relates to multiple myeloma KMS12E. Briefly: Cell viability (Presto Blue), multiple myeloma KMS12E. The class given is cell-based. The conditions noted are these: Homo sapiens, KMS12E cells, 70 hours exposure, read-out: Plasma cell myeloma, IC50. How it is done: as §1
The test system of test [4] is multiple myeloma KMS12E, Non-hodgkin's lymphoma SU-DHL4, T-cell lymphoma Hut-78. Description: Cell viability (Presto Blue), panel of cancer cell lines. Format: cell-based. The conditions noted are these: Homo sapiens; range over KMS12E, SU-DHL4, Hut-78; 70 hours; read-out: IC50, viability of the three cancer cell lines.
Protocol: Three cancer cell lines, multiple myeloma KMS12E, Non-hodgkin's lymphoma SU-DHL4, T-cell lymphoma Hut-78, and normal human peripheral blood mononuclear cells derived from healthy individual were tested. The cells were plated in 384 well plates in RPMI medium supplemented with 10% fetal bovine serum. Cancer cells were plated at 1000 cells/well and normal cells at 10,000 cells per well in a total volume of 30 uL/well. Immediately after plating, the test compounds were added at five concentrations: 10 uM-1 uM-0.01 uM-0.001 uM, in duplicate wells for each concentration. The cells were exposed to compounds for 70 hours at 37° C. in humidified incubator with 5% CO2. Cell viability was determined by Presto Blue reagent (Thermo Scientific/Invitrogen).
For another test, the system named is T-cell lymphoma Hut-78. Description: Cell viability (Presto Blue), T-cell lymphoma Hut-78. The class given is cell-based. The conditions noted are these: Homo sapiens, HuT78, Hut-78 cells, 70 hours exposure. As for the experimental part:
as §1

Test [5] concerns the target T1, Full length human recombinant PIKFYVE (Homo sapiens, UniProt Q9Y2I7).
T1 construct: Full length human recombinant PIKFYVE expressed in baculovirus expression system as N-terminal GST-fusion protein; GST (N); purchased Carna Biosciences (Kobe, Japan); host or cells: baculovirus expression system
Briefly: Biochemical PIKfyve assay. The conditions noted are these: 2 nM enzyme, 10 μM ATP, 3 h room temperature. As for the experimental part:
Full length human recombinant PIKFYVE expressed in baculovirus expression system as N-terminal GST-fusion protein (265 kDa) was obtained from Carna Biosciences (Kobe, Japan). […] The kinase reactions were allowed to proceed for 3 h at room temperature. […] Terminated plates were analyzed on a microfluidic electrophoresis instrument (Caliper LabChip® 3000, Caliper Life Sciences/Perkin Elmer).

[6] abbreviates: viability, Presto Blue, 70 hours exposure, read-out: Normal human PBMCs, IC50.

By IC50 is commonly meant the point on the concentration scale where inhibition reaches its midpoint.

T1 sequence (Q9Y2I7 whole entry, the tested form may be a part): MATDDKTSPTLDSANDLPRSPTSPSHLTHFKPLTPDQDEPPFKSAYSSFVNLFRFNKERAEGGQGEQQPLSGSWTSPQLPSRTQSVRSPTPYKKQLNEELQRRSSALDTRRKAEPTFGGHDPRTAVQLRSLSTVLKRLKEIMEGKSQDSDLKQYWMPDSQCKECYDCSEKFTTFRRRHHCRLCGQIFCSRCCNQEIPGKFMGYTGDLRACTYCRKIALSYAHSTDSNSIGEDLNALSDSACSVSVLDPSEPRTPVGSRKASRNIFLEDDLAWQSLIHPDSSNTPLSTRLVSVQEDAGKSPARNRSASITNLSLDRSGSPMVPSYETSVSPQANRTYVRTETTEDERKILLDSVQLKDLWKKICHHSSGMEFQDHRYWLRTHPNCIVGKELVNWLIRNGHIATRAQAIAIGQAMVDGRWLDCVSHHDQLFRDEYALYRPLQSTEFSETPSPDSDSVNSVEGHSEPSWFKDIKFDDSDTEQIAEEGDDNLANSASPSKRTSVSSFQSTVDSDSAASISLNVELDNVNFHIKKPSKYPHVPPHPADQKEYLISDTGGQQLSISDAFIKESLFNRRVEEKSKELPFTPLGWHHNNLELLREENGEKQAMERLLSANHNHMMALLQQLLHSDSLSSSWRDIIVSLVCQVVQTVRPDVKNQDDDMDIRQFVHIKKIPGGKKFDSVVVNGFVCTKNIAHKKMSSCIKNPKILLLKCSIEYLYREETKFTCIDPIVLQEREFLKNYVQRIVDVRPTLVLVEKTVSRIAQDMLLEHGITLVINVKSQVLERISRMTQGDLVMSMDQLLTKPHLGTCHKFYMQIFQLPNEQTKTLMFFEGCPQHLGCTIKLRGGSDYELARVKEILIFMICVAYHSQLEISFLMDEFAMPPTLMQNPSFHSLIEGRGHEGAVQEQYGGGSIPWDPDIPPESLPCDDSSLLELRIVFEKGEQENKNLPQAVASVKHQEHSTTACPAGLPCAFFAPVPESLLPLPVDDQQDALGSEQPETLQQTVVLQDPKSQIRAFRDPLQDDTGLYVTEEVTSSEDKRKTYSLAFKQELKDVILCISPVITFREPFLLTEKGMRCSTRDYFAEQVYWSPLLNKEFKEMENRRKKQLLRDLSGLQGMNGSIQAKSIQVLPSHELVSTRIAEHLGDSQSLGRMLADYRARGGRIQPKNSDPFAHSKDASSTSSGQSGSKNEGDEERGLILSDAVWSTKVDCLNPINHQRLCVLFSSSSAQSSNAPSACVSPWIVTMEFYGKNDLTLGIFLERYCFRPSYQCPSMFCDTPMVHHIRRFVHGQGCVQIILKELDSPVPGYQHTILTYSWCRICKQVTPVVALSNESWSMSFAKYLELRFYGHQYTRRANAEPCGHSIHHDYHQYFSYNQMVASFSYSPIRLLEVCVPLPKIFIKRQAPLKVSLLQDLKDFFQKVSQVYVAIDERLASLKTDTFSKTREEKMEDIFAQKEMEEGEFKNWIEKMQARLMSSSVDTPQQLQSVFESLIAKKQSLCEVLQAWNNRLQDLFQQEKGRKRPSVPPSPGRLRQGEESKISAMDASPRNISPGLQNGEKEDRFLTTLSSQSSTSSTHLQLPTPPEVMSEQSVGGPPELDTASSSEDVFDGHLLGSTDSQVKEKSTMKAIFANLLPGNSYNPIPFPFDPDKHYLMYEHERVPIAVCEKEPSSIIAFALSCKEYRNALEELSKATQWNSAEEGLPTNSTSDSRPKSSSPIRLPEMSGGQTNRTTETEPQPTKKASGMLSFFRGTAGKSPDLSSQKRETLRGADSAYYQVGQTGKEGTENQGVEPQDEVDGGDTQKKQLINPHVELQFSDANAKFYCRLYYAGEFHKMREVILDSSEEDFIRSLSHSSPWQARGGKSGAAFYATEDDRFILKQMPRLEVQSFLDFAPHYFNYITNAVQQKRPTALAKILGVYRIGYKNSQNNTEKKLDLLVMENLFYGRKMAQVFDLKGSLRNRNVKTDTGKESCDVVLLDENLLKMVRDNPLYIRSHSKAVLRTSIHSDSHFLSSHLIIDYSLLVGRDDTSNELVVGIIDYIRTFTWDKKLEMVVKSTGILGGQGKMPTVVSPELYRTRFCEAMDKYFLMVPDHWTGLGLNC

Take `Cc1cccc(/C=N/Nc2cc(N3CCOCC3)n3nc(-c4ccncc4)cc3n2)c1` [APY0201]: the “Caspase3/7 activation (early apoptosis marker)” value (“Caspase3/7 activation” below) in test [1] is on record as “induce apoptosis”. In test [2], the “secretion of IL-23” value is reported as “completely blocked secretion of IL-23”. The IC50 in test [3] (70 hours, Example 14 text, read-out: IC50, viability of normal PBMCs) was > 10000 nM; in test [3] (setting [6]) it was > 10000 nM; in the test with multiple myeloma KMS12E, 74 nM; in test [4], 33 to 46 nM; in the test on T-cell lymphoma Hut-78, 28 nM.

Turning to `Cc1cccc(/C=N/Nc2cc(N3CCOCC3)nc(OCCc3ccccn3)n2)c1` [Apilimod, apilimod], the “Caspase3/7 activation” value in test [1] is given as “induce apoptosis”. The results for the IC50 (in test [3] (setting [6]); in the test with multiple myeloma KMS12E; in the test with T-cell lymphoma Hut-78) were > 10000 nM, 73 nM and 27 nM, respectively.

Take `Cc1cccc(/C=N/Nc2cc(N3CCOCC3)n3nc(-c4ccncc4)nc3n2)c1` [Compound 1, (E)-4-(5-(2-(3-methylbenzylidene)hydrazinyl)-2-(pyridin-4-yl)-[1,2,4]-triazolo[1,5-a]pyrimidin-7-yl)morpholine]: in test [1], the “Caspase3/7 activation” value is “triggered Caspase3/7 activation”. In test [2], the “secretion of IL-23” value is on record as “completely blocked secretion of IL-23”. Further, the IC50 was 10 nM in test [5], > 10000 nM in test [3] (setting [6]), 115 nM in the test with multiple myeloma KMS12E and 47 nM with T-cell lymphoma Hut-78. For the same compound, the “selectivity towards cancer cells over normal cells” value in test [3] (Hut-78 and KMS12E vs normal human PBMCs) is “showed selectivity towards cancer cells over normal cells”.
